# Results taken from ChEMBL document CHEMBL4000141, “Synthesis and carbonic anhydrase isoenzymes I, II, IX, and XII inhibitory effects of dimethoxybromophenol derivatives incorporating cyclopropane moieties” (J Med Chem, 2015).
# Target: Carbonic anhydrase 9 (Homo sapiens, UniProt Q16790)
# Description: Inhibition of human CA9 by stopped-flow CO2 hydration method
row,Compound,Ki [µM]
1,COc1cc(Br)c(C[C@@H]2C[C@H]2C(=O)O)c(Br)c1OC,> 50
2,COc1cc(C[C@H]2C[C@H]2C(=O)O)c(Br)c(Br)c1OC,> 50
3,CCOC(=O)[C@@H]1C[C@@H]1Cc1c(Br)cc(OC)c(OC)c1Br,8.9
4,CCOC(=O)[C@@H]1C[C@H]1Cc1cc(OC)c(OC)c(Br)c1Br,9
5,COc1c(Br)c(Br)c(C[C@@H]2C[C@H]2C(=O)O)c(Br)c1OC,> 50
6,COc1cc(Br)c(C[C@@H]2C[C@H]2C(=O)O)cc1OC,9.8
7,COc1ccc(C[C@@H]2C[C@H]2CO)cc1OC,8.8
8,COc1cc(C[C@@H]2C[C@H]2C(=O)O)c(Br)c(Br)c1OC,> 50
9,CCOC(=O)[C@@H]1C[C@@H]1Cc1cc(OC)c(OC)c(Br)c1Br,> 50
10,CCOC(=O)[C@@H]1C[C@H]1Cc1ccc(OC)c(OC)c1,9.1
11,COc1cc(Br)c(C[C@H]2C[C@H]2C(=O)O)c(Br)c1OC,> 50
12,COc1cc(Br)c(C[C@H]2C[C@H]2C(=O)O)cc1OC,> 50
13,CCOC(=O)[C@@H]1C[C@H]1Cc1c(Br)cc(OC)c(OC)c1Br,9.7
14,COc1c(Br)c(Br)c(C[C@H]2C[C@H]2C(=O)O)c(Br)c1OC,10.5
15,CCOC(=O)[C@@H]1C[C@@H]1Cc1c(Br)c(Br)c(OC)c(OC)c1Br,> 50

# The remaining compounds from weak to strong by Ki, led by results:
row,Ki [µM],Compound
1,8.8,COc1ccc(C[C@@H]2C[C@@H]2C(=O)O)cc1OC
2,7.8,CCOC(=O)[C@@H]1C[C@H]1Cc1c(Br)c(Br)c(OC)c(OC)c1Br
3,7.3,CCOC(=O)[C@@H]1C[C@H]1Cc1cc(OC)c(OC)cc1Br
4,6.6,CCOC(=O)[C@@H]1C[C@@H]1Cc1ccc(OC)c(OC)c1
5,4.9,COc1ccc(C[C@H]2C[C@H]2CO)cc1OC
6,1.1,COc1ccc(C[C@@H]2C[C@H]2C(=O)O)cc1OC
7,1,CCOC(=O)[C@@H]1C[C@@H]1Cc1cc(OC)c(OC)cc1Br

# Target: Carbonic anhydrase 12 (Homo sapiens, UniProt O43570)
# Sequence (O43570 whole entry): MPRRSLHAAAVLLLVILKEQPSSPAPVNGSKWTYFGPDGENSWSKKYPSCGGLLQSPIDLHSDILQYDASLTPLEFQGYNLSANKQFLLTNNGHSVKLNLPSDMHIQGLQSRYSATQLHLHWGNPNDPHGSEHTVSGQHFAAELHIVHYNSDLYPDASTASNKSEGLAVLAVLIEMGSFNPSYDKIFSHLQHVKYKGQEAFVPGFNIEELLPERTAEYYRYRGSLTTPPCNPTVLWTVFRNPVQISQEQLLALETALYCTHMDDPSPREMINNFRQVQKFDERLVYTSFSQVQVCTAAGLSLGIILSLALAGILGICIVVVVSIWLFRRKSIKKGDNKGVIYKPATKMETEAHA
# Assay: Inhibition of human CA12 by stopped-flow CO2 hydration method
row,Ki [µM],Compound
1,> 50,COc1cc(Br)c(C[C@@H]2C[C@H]2C(=O)O)c(Br)c1OC
2,> 50,COc1cc(C[C@H]2C[C@H]2C(=O)O)c(Br)c(Br)c1OC
3,> 50,COc1cc(C[C@@H]2C[C@H]2C(=O)O)c(Br)c(Br)c1OC
4,> 50,COc1cc(Br)c(C[C@H]2C[C@H]2C(=O)O)c(Br)c1OC
